# PubChem BioAssay AID2060602 (Molecular Pharmacology Branch, DTP, NCI, 2025)
# Values joined by “and” are separate entries in the source; they are usually repeats but may differ in a detail not shown here. Equal entries are not always repeated.
# Test system: 648629-189-R-J1-PDC complex spheroids viability
# Assay: Anticancer human tumor 648629-189-R-J1-PDC patient-derived bladder carcinoma cell line growth inhibition [CLK]
# Conditions: for viability, T/C: stronger effect = lower value
# Outline: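 Patient-derived tumor cells grown as complex spheroids with HUVEC endothelial cells and mesenchymal stem cells, treated with drug combinations. Concentrations descend in half-log steps from near clinical Cmax, or from 10 microM if Cmax unknown.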
# [1] = curve of first compound, second compound 0.0316 µM
# [2] = curve of first compound, second compound 0.1 µM
# [3] = curve of first compound, second compound 0.316 µM
# [4] = curve of first compound, second compound 1 µM
# [5] = curve of first compound, second compound 3.16 µM
# [6] = curve of first compound, second compound 10 µM
# [7] = second compound 0.0316 µM, first compound 0.0316 µM
# [8] = second compound 0.0316 µM, first compound 0.1 µM
# [9] = second compound 0.0316 µM, first compound 0.316 µM
# [10] = second compound 0.0316 µM, first compound 1 µM
# [11] = second compound 0.1 µM, first compound 0.0316 µM
# [12] = second compound 0.1 µM, first compound 0.1 µM
# [13] = second compound 0.1 µM, first compound 0.316 µM
# [14] = second compound 0.1 µM, first compound 1 µM
# [15] = second compound 0.316 µM, first compound 0.0316 µM
# [16] = second compound 0.316 µM, first compound 0.1 µM
# [17] = second compound 0.316 µM, first compound 0.316 µM
# [18] = second compound 0.316 µM, first compound 1 µM
# [19] = second compound 1 µM, first compound 0.0316 µM
# [20] = second compound 1 µM, first compound 0.1 µM
# [21] = second compound 1 µM, first compound 0.316 µM
# [22] = second compound 1 µM, first compound 1 µM
# [23] = second compound 3.16 µM, first compound 0.0316 µM
# [24] = second compound 3.16 µM, first compound 0.1 µM
# [25] = second compound 3.16 µM, first compound 0.316 µM
# [26] = second compound 3.16 µM, first compound 1 µM
# [27] = second compound 10 µM, first compound 0.0316 µM
# [28] = second compound 10 µM, first compound 0.1 µM
# [29] = second compound 10 µM, first compound 0.316 µM
# [30] = second compound 10 µM, first compound 1 µM
# [31] = second compound 0.0316 µM, first compound 3.16 µM
# [32] = second compound 0.0316 µM, first compound 10 µM
# [33] = second compound 0.1 µM, first compound 3.16 µM
# [34] = second compound 0.1 µM, first compound 10 µM
# [35] = second compound 0.316 µM, first compound 3.16 µM
# [36] = second compound 0.316 µM, first compound 10 µM
# [37] = second compound 1 µM, first compound 3.16 µM
# [38] = second compound 1 µM, first compound 10 µM
# [39] = second compound 3.16 µM, first compound 3.16 µM
# [40] = second compound 3.16 µM, first compound 10 µM
# [41] = second compound 10 µM, first compound 3.16 µM
# [42] = second compound 10 µM, first compound 10 µM
# 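Throughout, for viability, T/C: drug exposure lasted seven days before viability readout; 100% = DMSO vehicle control wells.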
structure (smiles),measurement,setting,value
CCc1c2c(nc3ccc(O)cc13)-c1cc3c(c(=O)n1C2)COC(=O)[C@]3(O)CC + CN1CCN(c2cc(C(=O)Nc3cc4cc(-c5cnn(C)c5)ccc4cn3)ccn2)CC1,IC50,[1],< 3.16 nM
same,IC50,[2],< 3.16 nM
same,IC50,[3],< 3.16 nM
same,IC50,[4],< 3.16 nM
same,IC50,[5],< 3.16 nM
same,IC50,[6],< 3.16 nM
same,"viability, T/C","second compound 0.0316 µM, first compound 0.00316 µM",36.5%
same,"viability, T/C","second compound 0.0316 µM, first compound 0.01 µM",14.7%
same,"viability, T/C",[7],7.53%
same,"viability, T/C",[8],5.28%
same,"viability, T/C",[9],3.93%
same,"viability, T/C",[10],3.89%
same,"viability, T/C","second compound 0.1 µM, first compound 0.00316 µM",29%
same,"viability, T/C","second compound 0.1 µM, first compound 0.01 µM",15.4%
same,"viability, T/C",[11],6.89%
same,"viability, T/C",[12],4.76%
same,"viability, T/C",[13],4.13%
same,"viability, T/C",[14],4.88%
same,"viability, T/C","second compound 0.316 µM, first compound 0.00316 µM",22.5%
same,"viability, T/C","second compound 0.316 µM, first compound 0.01 µM",16.7%
same,"viability, T/C",[15],10.8%
same,"viability, T/C",[16],6.46%
same,"viability, T/C",[17],6.71%
same,"viability, T/C",[18],3.75%
same,"viability, T/C","second compound 1 µM, first compound 0.00316 µM",0.15%
same,"viability, T/C","second compound 1 µM, first compound 0.01 µM",0.14%
same,"viability, T/C",[19],0.15%
same,"viability, T/C",[20],0.06%
same,"viability, T/C",[21],0.21%
same,"viability, T/C",[22],1.34%
same,"viability, T/C","second compound 3.16 µM, first compound 0.00316 µM",0.05%
same,"viability, T/C","second compound 3.16 µM, first compound 0.01 µM",1.41%
same,"viability, T/C",[23],0.1%
same,"viability, T/C",[24],0.07%
same,"viability, T/C",[25],0.3%
same,"viability, T/C",[26],0.54%
same,"viability, T/C","second compound 10 µM, first compound 0.00316 µM",0.05%
same,"viability, T/C","second compound 10 µM, first compound 0.01 µM",0.52%
same,"viability, T/C",[27],0.17%
same,"viability, T/C",[28],0.15%
same,"viability, T/C",[29],0.22%
same,"viability, T/C",[30],0.48%
Nc1ccccc1NC(=O)c1ccc(CNC(=O)OCc2cccnc2)cc1 + CNC(=O)c1ccc(Nc2nc(OC3CCCC3)c3c(-c4ccc5nc(C)oc5c4)c[nH]c3n2)c(OC)c1,IC50,[1],1590 nM
same,IC50,[2],1560 nM
same,IC50,[3],< 31.6 nM
same,IC50,[4],< 31.6 nM
same,IC50,[5],< 31.6 nM
same,IC50,[6],< 31.6 nM
same,"viability, T/C",[7],104%
same,"viability, T/C",[8],93.5%
same,"viability, T/C",[9],96.7%
same,"viability, T/C",[10],63.9%
same,"viability, T/C",[31],27.1%
same,"viability, T/C",[32],0.72%
same,"viability, T/C",[11],86.6%
same,"viability, T/C",[12],90.8%
same,"viability, T/C",[13],82.4%
same,"viability, T/C",[14],65.1%
same,"viability, T/C",[33],26.2%
same,"viability, T/C",[34],0.23%
same,"viability, T/C",[15],30.3%
same,"viability, T/C",[16],22.9%
same,"viability, T/C",[17],27.1%
same,"viability, T/C",[18],27.5%
same,"viability, T/C",[35],17.8%
same,"viability, T/C",[36],0.7%
same,"viability, T/C",[19],17.4%
same,"viability, T/C",[20],19.8%
same,"viability, T/C",[21],20.5%
same,"viability, T/C",[22],18.4%
same,"viability, T/C",[37],12.6%
same,"viability, T/C",[38],0.5%
same,"viability, T/C",[23],18.9%
same,"viability, T/C",[24],18.3%
same,"viability, T/C",[25],19.3%
same,"viability, T/C",[26],18.5%
same,"viability, T/C",[39],16.4%
same,"viability, T/C",[40],0.52%
same,"viability, T/C",[27],21.7%
same,"viability, T/C",[28],16.4%
same,"viability, T/C",[29],19.5%
same,"viability, T/C",[30],23.9%
same,"viability, T/C",[41],15.6%
same,"viability, T/C",[42],1.56%
CC1(C)CCC(CN2CCN(c3ccc(C(=O)NS(=O)(=O)c4ccc(NCC5CCOCC5)c([N+](=O)[O-])c4)c(Oc4cnc5[nH]ccc5c4)c3)CC2)=C(c2ccc(Cl)cc2)C1,"viability, T/C",compound 0.0316 µM,102% and 96.3%
same,"viability, T/C",compound 0.1 µM,94.1% and 86%
same,"viability, T/C",compound 0.316 µM,99.4% and 93.7%
same,"viability, T/C",compound 1 µM,88.7% and 93.4%
same,"viability, T/C",compound 3.16 µM,84.9% and 93.4%
same,"viability, T/C",compound 10 µM,62% and 110%
same,IC50,curve of compound,> 10000 nM
C=C(F)C(=O)N1CCN(c2nc(OCC3CCCN3C)nc3c2CCN(c2cccc4cccc(Cl)c24)C3)CC1CC#N (stereo not drawn) + CN1CCN(c2cc(C(=O)Nc3cc4cc(-c5cnn(C)c5)ccc4cn3)ccn2)CC1,IC50,[1],5690 nM
same,IC50,[2],5430 nM
same,IC50,[3],< 31.6 nM
same,IC50,[4],< 31.6 nM
same,IC50,[5],< 31.6 nM
same,IC50,[6],< 31.6 nM
same,"viability, T/C",[7],111%
same,"viability, T/C",[8],105%
same,"viability, T/C",[9],109%
same,"viability, T/C",[10],126%
same,"viability, T/C",[31],102%
same,"viability, T/C",[32],0.2%
same,"viability, T/C",[11],106%
same,"viability, T/C",[12],114%
same,"viability, T/C",[13],98.5%
same,"viability, T/C",[14],106%
same,"viability, T/C",[33],94.2%
same,"viability, T/C",[34],0.16%
same,"viability, T/C",[15],46%
same,"viability, T/C",[16],45.1%
same,"viability, T/C",[17],50%
same,"viability, T/C",[18],50.1%
same,"viability, T/C",[35],47.5%
same,"viability, T/C",[36],0.75%
same,"viability, T/C",[19],0.54%
same,"viability, T/C",[20],0.36%
same,"viability, T/C",[21],0.62%
same,"viability, T/C",[22],0.47%
same,"viability, T/C",[37],0.48%
same,"viability, T/C",[38],0.1%
same,"viability, T/C",[23],0.13%
same,"viability, T/C",[24],0.15%
same,"viability, T/C",[25],0.17%
same,"viability, T/C",[26],0.16%
same,"viability, T/C",[39],0.14%
same,"viability, T/C",[40],0.11%
same,"viability, T/C",[27],0.21%
same,"viability, T/C",[28],0.19%
same,"viability, T/C",[29],0.21%
same,"viability, T/C",[30],0.24%
same,"viability, T/C",[41],0.25%
same,"viability, T/C",[42],0.21%
